Assay results from patent US20250249056A1, “CANCER THERAPIES COMPRISING A NUCLEAR EXPORT INHIBITOR AND AN ONCOLYTIC VIRUS” (priority 2022, published 2025).
Like-named read-outs stand apart in the source and are kept apart here.

Test system: Colo205 cells
Assay type: cell-based, human

In the case of `O=C(/C=C\n1cnc(-c2cc(C(F)(F)F)cc(C(F)(F)F)c2)n1)NNc1cnccn1` [selinexor], the “Differential protein expression, NPAT” value (Q14207, selinexor-treated cytoplasm vs control cytoplasm) is reported as 0.01, the “Differential protein expression, DSC3” value (Q14574, selinexor-treated cytoplasm vs control cytoplasm) is reported as 2.069 and the “Differential protein expression, NCOA6” value (Q14686, selinexor-treated cytoplasm vs control cytoplasm) is reported as 0.01. For the same compound, the “Differential protein expression, SETDB1” value (Q15047, selinexor-treated cytoplasm vs control cytoplasm) was 0.01, the “Differential protein expression, RRS1” value (Q15050, selinexor-treated cytoplasm vs control cytoplasm) was 2.155 and the “Differential protein expression, TOMM20” value (Q15388, selinexor-treated cytoplasm vs control cytoplasm) was 2.862. For the same compound, the “Differential protein expression, CDSN” value (Q15517, selinexor-treated cytoplasm vs control cytoplasm) was 3.988, the “Differential protein expression, TAF7” value (Q15545, selinexor-treated cytoplasm vs control cytoplasm) was 0.402 and the “Differential protein expression, TAF1C” value (Q15572, selinexor-treated cytoplasm vs control cytoplasm) was 100. The “Differential protein expression, ELF2” value (Q15723, selinexor-treated cytoplasm vs control cytoplasm) was 0.01, the “Differential protein expression, M11L” value (Q85295, selinexor-treated cytoplasm vs control cytoplasm) was 4.074 and the “Differential protein expression, MYO18A” value (Q92614, selinexor-treated cytoplasm vs control cytoplasm) was 2.026. The “Differential protein expression, USP6NL” value (Q92738, selinexor-treated cytoplasm vs control cytoplasm) was 100, the “Differential protein expression, TAF15” value (Q92804, selinexor-treated cytoplasm vs control cytoplasm) was 2.706 and the “Differential protein expression, KAT5” value (Q92993, selinexor-treated cytoplasm vs control cytoplasm) was 7.08. The “Differential protein expression, TEAD3” value (Q99594, selinexor-treated cytoplasm vs control cytoplasm) was 100, the “Differential protein expression, SLC29A1” value (Q99808, selinexor-treated cytoplasm vs control cytoplasm) was 0.406 and the “Differential protein expression, selinexor-treated nucleus vs control nucleus” value (protein AAAS (Q9NRG9)) was 0.477. The “Differential protein expression, selinexor-treated nucleus vs control nucleus” value (protein ABHD10 (Q9NUJ1)) was 2.289, the “Differential protein expression, selinexor-treated nucleus vs control nucleus” value (protein ACAD10 (Q6JQN1)) was 2.239 and the “Differential protein expression, selinexor-treated nucleus vs control nucleus” value (protein BRIX1 (Q8TDN6)) was 0.475. For the same compound, the “Differential protein expression, selinexor-treated nucleus vs control nucleus” value (protein CALML5 (Q9NZT1)) was 2.328, the “Differential protein expression, selinexor-treated nucleus vs control nucleus” value (protein CASP9 (P55211)) was 100 and the “Differential protein expression, selinexor-treated nucleus vs control nucleus” value (protein CDK3 (Q00526)) was 0.472. For the same compound, the “Differential protein expression, selinexor-treated nucleus vs control nucleus” value (protein CHMP2B (Q9UQN3)) was 2.092, the “Differential protein expression, selinexor-treated nucleus vs control nucleus” value (protein CIB1 (Q99828)) was 0.474 and the “Differential protein expression, selinexor-treated nucleus vs control nucleus” value (protein CIT (O14578)) was 0.498. For the same compound, the “Differential protein expression, selinexor-treated nucleus vs control nucleus” value (protein COA1 (Q9GZY4)) was 0.481, the “Differential protein expression, selinexor-treated nucleus vs control nucleus” value (protein CSTA (P01040)) was 2.196 and the “Differential protein expression, selinexor-treated nucleus vs control nucleus” value (protein ECHDC1 (Q9NTX5)) was 2.716. The “Differential protein expression, selinexor-treated nucleus vs control nucleus” value (protein EFNB1 (P98172)) was 100, the “Differential protein expression, selinexor-treated nucleus vs control nucleus” value (protein ERLIN2 (O94905)) was 0.498 and the “Differential protein expression, selinexor-treated nucleus vs control nucleus” value (protein F5 (P12259)) was 100. For the same compound, the “Differential protein expression, selinexor-treated nucleus vs control nucleus” value (protein FBLIM1 (Q8WUP2)) was 0.481, the “Differential protein expression, selinexor-treated nucleus vs control nucleus” value (protein FHIP1B (Q8N612)) was 100 and the “Differential protein expression, selinexor-treated nucleus vs control nucleus” value (protein FN3K (Q9H479)) was 2.007. The “Differential protein expression, selinexor-treated nucleus vs control nucleus” value (protein FOS (P01100)) was 2.044, the “Differential protein expression, selinexor-treated nucleus vs control nucleus” value (protein FXR1 (Q9UM11)) was 2.17 and the “Differential protein expression, selinexor-treated nucleus vs control nucleus” value (protein GEMIN5 (Q8TEQ6)) was 0.496. The “Differential protein expression, selinexor-treated nucleus vs control nucleus” value (protein GEMIN6 (Q8WXD5)) was 0.473, the “Differential protein expression, selinexor-treated nucleus vs control nucleus” value (protein GNL2 (Q13823)) was 2.38 and the “Differential protein expression, selinexor-treated nucleus vs control nucleus” value (protein H2AC1 (Q96QV6)) was 2.215. The “Differential protein expression, selinexor-treated nucleus vs control nucleus” value (protein H2AC4 (P04908)) was 2.544, the “Differential protein expression, selinexor-treated nucleus vs control nucleus” value (protein H2AC6 (Q93077)) was 2.544 and the “Differential protein expression, selinexor-treated nucleus vs control nucleus” value (protein H2AC18 (Q6FI13)) was 2.322. The “Differential protein expression, selinexor-treated nucleus vs control nucleus” value (protein H2AC20 (Q16777)) was 2.322, the “Differential protein expression, selinexor-treated nucleus vs control nucleus” value (protein H2AC21 (Q8IUE6)) was 2.215 and the “Differential protein expression, selinexor-treated nucleus vs control nucleus” value (protein H2AC25 (Q7L7L0)) was 2.544. For the same compound, the “Differential protein expression, selinexor-treated nucleus vs control nucleus” value (protein H2AX (P16104)) was 2.215, the “Differential protein expression, selinexor-treated nucleus vs control nucleus” value (protein H2BK1 (A0A2R8Y619)) was 2.69 and the “Differential protein expression, selinexor-treated nucleus vs control nucleus” value (protein H3-3A (P84243)) was 2.584. For the same compound, the “Differential protein expression, selinexor-treated nucleus vs control nucleus” value (protein HK1 (P19367)) was 0.496, the “Differential protein expression, selinexor-treated nucleus vs control nucleus” value (protein HNRNPA1L2 (Q32P51)) was 2.623 and the “Differential protein expression, selinexor-treated nucleus vs control nucleus” value (protein KIF23 (Q02241)) was 0.492. For the same compound, the “Differential protein expression, selinexor-treated nucleus vs control nucleus” value (protein KRT1 (P04264)) was 2.317, the “Differential protein expression, selinexor-treated nucleus vs control nucleus” value (protein KRT7 (P08729)) was 2.576 and the “Differential protein expression, selinexor-treated nucleus vs control nucleus” value (protein KRT14 (P02533)) was 2.157. The “Differential protein expression, selinexor-treated nucleus vs control nucleus” value (protein KRT24 (Q2M2I5)) was 2.19, the “Differential protein expression, selinexor-treated nucleus vs control nucleus” value (protein KRT25 (Q7Z3Z0)) was 2.158 and the “Differential protein expression, selinexor-treated nucleus vs control nucleus” value (protein KRT27 (Q7Z3Y8)) was 2.158. For the same compound, the “Differential protein expression, selinexor-treated nucleus vs control nucleus” value (protein KRT28 (Q7Z3Y7)) was 2.058, the “Differential protein expression, selinexor-treated nucleus vs control nucleus” value (protein LGALS7 (P47929)) was 2.013 and the “Differential protein expression, selinexor-treated nucleus vs control nucleus” value (protein LRRC58 (Q96CX6)) was 2.747. For the same compound, the “Differential protein expression, selinexor-treated nucleus vs control nucleus” value (protein MAFF (Q9ULX9)) was 2.133, the “Differential protein expression, selinexor-treated nucleus vs control nucleus” value (protein MAGED2 (Q9UNF1)) was 2.271 and the “Differential protein expression, selinexor-treated nucleus vs control nucleus” value (protein MAN1A1 (P33908)) was 100. The “Differential protein expression, selinexor-treated nucleus vs control nucleus” value (protein MICOS13 (Q5XKP0)) was 0.483 and the “Differential protein expression, selinexor-treated nucleus vs control nucleus” value (protein MTX1 (Q13505)) was 0.499.
